Measured values reported in publication PMC11336422, “Oligoarginine peptide structure and its effect on cell penetration in ocular drug delivery” (Heliyon, 2024).
Where two headings read alike, the source gives them in different places. Peptide text beside a SMILES is read from it.

Columns and labels:
[1] = test system: Escherichia coli (E. coli) ATCC25922; assay type: cell-based
Procedure: (§1) A broth microdilution assay was performed to determine the minimum inhibitory concentration (MIC) for the oligoarginine peptides. Escherichia coli (E. coli) ATCC25922 and Staphylococcus aureus (S. aureus) ATCC6538 were used as model organisms for Gram-negative and Gram-positive bacteria, respectively. Both strains were cultured in LB broth for ∼18 h overnight at 37 °C and shaking set to 180 RPM. The culture was diluted to obtain a 0.01 optical density (OD) bacterial suspension in LB. Using a 96-well plate, oligoarginine concentrations ranging from 1 mM to 0.001 mM were obtained, and each peptide concentration was tested against both bacterial strains. The bacteria were incubated overnight at 37 °C for 18 h, and the lowest concentration of the treatment with no visible bacterial growth was recorded as the MIC of the respective oligoarginine treatment.

[2] = test system: Staphylococcus aureus (S. aureus) ATCC6538; assay type: cell-based
Procedure: as §1

[3] = LB broth, 1 mM to 0.001 mM, 18 h at 37 °C, no visible growth, average ± SEM, n = 9

Row | E. coli MIC ([1]; ATCC25922, 18 h) | S. aureus MIC ([2]; ATCC6538, 18 h) | Structure (SMILES) | E. coli MIC [1, 3] | S. aureus MIC [2, 3]
1 | > 1000 µM | > 1000 µM | N=C(N)NCCC[C@H](NC(=O)[C@H](CCCNC(=N)N)NC(=O)[C@@H](N)CCCNC(=N)N)C(=O)O [R3] (H-Arg-Arg-Arg-OH) |  | 
2 | > 1000 µM | > 1000 µM | N=C(N)NCCC[C@H](NC(=O)[C@H](CCCNC(=N)N)NC(=O)[C@H](CCCNC(=N)N)NC(=O)[C@H](CCCNC(=N)N)NC(=O)[C@H](CCCNC(=N)N)NC(=O)[C@@H](N)CCCNC(=N)N)C(=O)O [R6] |  | 
3 | > 1000 µM | 1000 µM | N=C(N)NCCC[C@H](NC(=O)[C@H](CCCNC(=N)N)NC(=O)[C@H](CCCNC(=N)N)NC(=O)[C@H](CCCNC(=N)N)NC(=O)[C@H](CCCNC(=N)N)NC(=O)[C@H](CCCNC(=N)N)NC(=O)[C@H](CCCNC(=N)N)NC(=O)[C@H](CCCNC(=N)N)NC(=O)[C@@H](N)CCCNC(=N)N)C(=O)O [R9] |  | 
4 |  |  | N=C(N)NCCC[C@H](NC(=O)[C@H](CCCNC(=N)N)NC(=O)[C@H](CCCNC(=N)N)NC(=O)[C@H](CCCNC(=N)N)NC(=O)[C@H](CCCNC(=N)N)NC(=O)[C@H](CCCNC(=N)N)NC(=O)[C@H](CCCNC(=N)N)NC(=O)[C@H](CCCNC(=N)N)NC(=O)[C@H](CCCNC(=N)N)NC(=O)[C@H](CCCNC(=N)N)NC(=O)[C@H](CCCNC(=N)N)NC(=O)[C@@H](N)CCCNC(=N)N)C(=O)O [R12] | 940 ± 160 µM | 610 ± 220 µM
